Results from PMC7503767, “Alkoxyamines Designed as Potential Drugs against Plasmodium and Schistosoma Parasites” (Molecules, 2020).
Where two headings read alike, the source gives them in different places.

Legend:
Adult S. mansoni = experiment: In vitro antischistosomal activity on adult worms; type: cell-based, Schistosoma mansoni; details: for Mean (±SD) survival time – Adult S. mansoni / Time for the death of 100% worms: 100 µg/mL; for Mean (±SD) survival time – Adult S. mansoni: observation up to 8 h (Table S1)
Source text: The NMRI strain of Schistosoma mansoni was used for the experimentations. The parasite was maintained on an albino variety of Biomphalaria glabrata from Brazil (intermediate host) and in Golden Hamsters, Mesocricetus auratus (Janvier Labs, Le Genest-Saint-Isle, France). Detailed methods, for mollusk and hamster infections and for parasite recovery, were previously described.
Adult worms were recovered between 42 and 47 days after infection by hepatic perfusion technique. Twenty to fifty adult worms were disposed in 12-well Falcon® plate containing 2 mL of RPMI 1640 (supplemented with L-glutamine and Hepes 25 mM) and stored in an incubator chamber (37 °C; 5% CO2). Drug preparation started with dissolution of the drug in DMSO to give a 100 mg/mL stock solution. The dilution was complemented with Tween 80 and RPMI in order to obtain the following final ratio dilution: RPMI 1640/Tween 80/DMSO, 1000/0.95/3.8, v/v/v. The drug solution was added to Falcon plates that contained adult worms. The S. mansoni cultures were then incubated with each drug at a final concentration of 100 µg/mL. Positive control was carried out with a solution of praziquantel (Merck KGaA, Darmstadt, Germany) at a concentration of 100 µg/mL. Negative control was carried out with the same RPMI 1640/Tween 80/DMSO solution, but without any drug. Each test was performed in duplicate. Every hour, moving worms were counted in order to define the percentage of survivors. Parasites showing no body contractions during a 30 s observation were considered as dead. Observations were extended to 8 h. Mean survival times (± standard deviation) were calculated for each drug using Kaplan–Meier survival analyses.

[1] = tested on: P. falciparum chloroquine-resistant strain FcB1-Columbia; experiment: Antiplasmodial screen at 10 µM and chemosensitivity assay (SYBR Green I), FcB1-Columbia; type: cell-based, Plasmodium falciparum
[2] = Homolysis of the NO–C bond measured by EPR
Protocol: Homolysis rate constants kd’ were measured by EPR and estimated using Equation (1) as reported many times in the literature. Further, Ea and kd were estimated using Equation (2). (1) ln([nitroxide]∞−[nitroxide]t/[nitroxide]∞)=−kd·t (2) Ea=−RT ln([…] kd′ )

[3] = adult S. mansoni, observation up to 8 h
[4] = FcB1-Columbia strain, read-out: IC50 on P. falciparum

Structure (SMILES)	Mean (±SD) survival time – Adult S. mansoni (Adult S. mansoni) [h]	Time for the death of 100% worms (Adult S. mansoni; [3]) [h]	IC50 [1, 4] [µM]	further results
CCOP(=O)(OCC)[C@@H](N(O[C@@H](COC(C)=O)c1ccccn1)C(C)(C)C)C(C)(C)C (relative stereo) [(RR/SS)-1j]	> 8	> 8	> 10	–
CCOP(=O)(OCC)[C@@H](N(O[C@H](COC(C)=O)c1ccccn1)C(C)(C)C)C(C)(C)C (relative stereo) [(RS/SR)-1j]	> 8	> 8	> 10	–
CCOP(=O)(OCC)C(N(OC(CNC(=O)C(F)(F)F)c1ccccc1)C(C)(C)C)C(C)(C)C (centres unmarked) [(RR/SS)-1E]	5.0 ± 0.5	6	> 10	–
CCOP(=O)(OCC)C(N(OC(C)c1cc[n+]([O-])cc1)C(C)(C)C)C(C)(C)C (centres unmarked) [(RR/SS)-1d]	> 8	> 8	> 10	–
CCOP(=O)(OCC)C(N(OC(CN)c1ccccn1)C(C)(C)C)C(C)(C)C (centres unmarked) [(RR/SS)-1g]	1.9 ± 0.1	2	> 10	–
CCOP(=O)(OCC)C(N(OC(C)c1ncc[nH]1)C(C)(C)C)C(C)(C)C (centres unmarked) [(RR/SS)-1k]	1.0 ± 0.05	1	> 10	S. mansoni Mean Survival Time (Adult S. mansoni; adult S. mansoni, single dose 100 µg/mL, observation up to 8 h): 1.0 ± 0.05 h
CCOP(=O)(OCC)C(N(OC(C)n1ccnc1)C(C)(C)C)C(C)(C)C (centres unmarked) [(RR/SS)-1o]	2.3 ± 0.2	3	25	–
CCOP(=O)(OCC)C(N(OC(C)c1ccc([N+](=O)[O-])cc1)C(C)(C)C)C(C)(C)C (centres unmarked) [(RR/SS)-1v]	3.4 ± 0.2	4	> 10	–
CCOP(=O)(OCC)C(N(OC(C)c1ccc(N)cc1)C(C)(C)C)C(C)(C)C (centres unmarked) [(RR/SS)-1w]	2.1 ± 0.1	3	> 10	–
CCOP(=O)(OCC)C(N(OC(C)c1ccc(C(=O)OC)cc1)C(C)(C)C)C(C)(C)C (centres unmarked) [(RR/SS)-1x]	> 8	> 8	> 10	–
CCOP(=O)(OCC)C(N(OC(C)c1ccc(C(=O)O)cc1)C(C)(C)C)C(C)(C)C (centres unmarked) [(RR/SS)-1y]	> 8	> 8	> 10	–
CCOP(=O)(OCC)C(N(OC(C)c1cc(-c2ccccc2)cc(-c2ccccc2)c1)C(C)(C)CO)C(C)(C)C (centres unmarked) [(RR/SS)-2G, Diethyl(1-((1-([1,1′:3′,1′′-terphenyl]-5′-yl)ethoxy)(1-hydroxy-2-methylpropan-2-yl)amino)-2,2-dimethylpropyl)phosphonate]	–	7	–	IC50 ([1]; Plasmodium falciparum, FCB1, read-out: IC50 on P. falciparum, FcB1-Columbia strain): > 10 µM; activation energy Ea ([2]; MeOH/water 2:1 pH = 7.0): 28.94 kcal/mol; re-estimated homolysis rate constant kd at 120 °C ([2]; MeOH/water 2:1 pH = 7.0): 19.5 10^−3 s^−1; homolysis rate constant kd′ ([2]; MeOH/water 2:1 pH = 7.0, 81 °C): 3.3 10^−4s^−1; half-life ([2]; buffer, pH 7, half-lifetime t1/2 at 37 °C, MeOH/water 2:1 pH = 7.0): 295 h; half-life ([2]; half-lifetime t1/2 at 37 °C, t-BuPh): 180 h; activation energy Ea ([2]; t-BuPh): 28.87 kcal/mol; re-estimated homolysis rate constant kd at 120 °C ([2]; t-BuPh): 21.1 10^−3 s^−1; homolysis rate constant kd′ ([2]; t-BuPh, 81 °C): 3.8 10^−4s^−1
CCOP(=O)(OCC)C(N(OC(CO)c1ccccc1)C(C)(C)C)C(C)(C)C (centres unmarked) [(RS/SR)-1C]	1.4 ± 0.2	2	> 10	–
CCOP(=O)(OCC)C(N(OC(COC)c1ccccc1)C(C)(C)C)C(C)(C)C (centres unmarked) [(RS/SR)-1D]	3.8 ± 0.5	6	> 10	–
CCOP(=O)(OCC)C(N(OC(C)c1cccnc1)C(C)(C)C)C(C)(C)C (centres unmarked) [(RS/SR)-1b]	–	–	–	IC50 ([1]; FcB1-Columbia strain, listed as (RS/SR)-1B, read-out: IC50 on P. falciparum): > 10 µM
CCOP(=O)(OCC)C(N(OC(CN)c1cc[n+]([O-])cc1)C(C)(C)C)C(C)(C)C (centres unmarked) [(RS/SR)-1e]	> 8	> 8	> 10	–
CCOP(=O)(OCC)C(N(OC(CN)c1ccncc1)C(C)(C)C)C(C)(C)C (centres unmarked) [(RS/SR)-1f]	–	–	> 10	–
CCOP(=O)(OCC)C(N(OC(CN)c1ccccn1)C(C)(C)C)C(C)(C)C (centres unmarked) [(RS/SR)-1g]	2.6 ± 0.3	4	> 10	–
CCOP(=O)(OCC)C(N(OC(CNC(=O)C(F)(F)F)c1ccccn1)C(C)(C)C)C(C)(C)C (centres unmarked) [(RS/SR)-1h]	> 8	> 8	> 10	–
CCOP(=O)(OCC)C(N(OC(CO)c1ccccn1)C(C)(C)C)C(C)(C)C (centres unmarked) [(RS/SR)-1i]	> 8	> 8	> 10	–
CCOP(=O)(OCC)C(N(OC(C)c1ncc[nH]1)C(C)(C)C)C(C)(C)C (centres unmarked) [(RS/SR)-1k]	> 8	> 8	> 10	–
CCOP(=O)(OCC)C(N(OC(C)n1ccnc1)C(C)(C)C)C(C)(C)C (centres unmarked) [(RS/SR)-1o]	1.1 ± 0.1	2	25	–
CCOP(=O)(OCC)C(N(OC(C)c1c[nH]cn1)C(C)(C)C)C(C)(C)C (centres unmarked) [(RS/SR)-1p]	1.4 ± 0.3	3	20.5	–
CCOP(=O)(OCC)C(N(OC(C)c1ccc([N+](=O)[O-])cc1)C(C)(C)C)C(C)(C)C (centres unmarked) [(RS/SR)-1v]	> 8	> 8	> 10	–
CCOP(=O)(OCC)C(N(OC(C)c1ccc(N)cc1)C(C)(C)C)C(C)(C)C (centres unmarked) [(RS/SR)-1w]	> 8	> 8	> 10	–
CCOP(=O)(OCC)C(N(OC(C)c1ccc(C(=O)OC)cc1)C(C)(C)C)C(C)(C)C (centres unmarked) [(RS/SR)-1x]	2.4 ± 0.3	4	> 10	–
CCOP(=O)(OCC)C(N(OC(C)c1ccccn1)C(C)(C)CO)C(C)(C)C (centres unmarked) [(RS/SR)-2c]	–	–	> 10	–
CCOP(=O)(OCC)C(N(OC(C)c1ccccc1)C(C)(C)CO)C(C)(C)C (centres unmarked) [(RS/SR)-2z]	> 8	> 8	> 10	–
